Assay results: patent US20220167645A1, “METHODS OF IMPROVING FISH FEED CONVERSION RATE AND SURVIVAL” (AQUINOVO LTD., priority 2019, published 2022)
Numbered stars: 1 amine (or outer) side, 2 acyl side, 3 side chain; on linkers, the order of the positions; unused ones are H or OH. Square brackets hold non-standard residues; d marks the D form. Suc = O=C(CCC(=O)[*:2])[*:1]; NMeV = CN[C@H](C(=O)O)C(C)C; βAla = NCCC(=O)O

System: Tilapia fish
Test: Experiment #3: tilapia fed AN6-coated feed, treatment schedules 1 to 8 (survival, weight, length, size distribution, FCR)
Assay type: in vivo
Conditions: for increase in average fish weight: D279, compared to control; for % big fish (Big fish 279 dph >1000 g) / % small fish (Small fish 279 dph >476 g) / Δ Treatment - Control (%) big fish (>1000 g) / Δ Treatment - Control (%) small fish (>476 g) / Big fish # (Big fish 279 dph >1000 g) / Small fish # (Small fish 279 dph): 279 dph; for Average FCR/cage / Average density (body/cage) / Average weight gain/fish (g) / Average weight/fish (g) / Total weight/cage (g): D 236 to D 279, % change relative to control
Description: The following fish feed was used in this experiment: MeM (powder, manufactured by Bern Aqua), Nanolis P1, P2 (pellet sizes of 1 mm, 1.2-1.5 mm, respectively, manufactured by Ocialis) and Tilaphi 2, 3 & 4 (pellet sizes of 2 mm, 3-4 mm & 5.5 mm manufactured by Ocialis). The feed content is in described in Table 4.
Feed was coated using the following general procedure: Different amounts of the peptide AN6 (SEQ ID NO: 6) were prepared by dissolving the peptide in Tris-HCl solution (50 mM, pH=8.8) in ratio of 15 mg peptide to 1.25 ml Tris-HCl solution. Then, each of the various solutions was mixed with 3 Kg of the basic feed pellets (depending on fish size) using an electric mixer. The peptide-feed mixtures where then dried either in oven at 40° C. for 24 hours or in drying drum (at room temperature) for few hours to form coated pellets.
Tilapia fish (n=4800) were raised from day 10 (0.05 g) post-hatch (dph) in indoor tanks and then transferred to outdoor cages in ponds (40-279 dph). Each cage/tank is an experimental unit. The fish were fed to apparent satiation 2-4 times a day with feed appropriate to their age and treatment as described in Table 5.
The trial included total 48 cages representing 8 treatments, with 6 repeats each. Each cage contained about 100 fish. […] Fed to fish throughout the entire growth-trial period (for 279 days); • Treatment 2 (5 ppm from 10 dph for 120 days): The control diet with the addition of 5 mg peptide/kg of diet (Feed F). Fish were fed the peptide enriched diet for 120 days (4 months), from 10 days of age (D0—the first day of the experiment) to 130 days of age (D120), and the control diet during the last 6 months (159 days) (Feed E); • Treatment 3 (10 ppm from 10 dph for 60 days): The control diet with the addition of 10 mg peptide/kg of diet (Feed G). […] Fish were fed the peptide enriched diet for 90 days (3 months) from 10 days of age (D0) to 100 days of age (D90) and the control diet for the last 7 months (189 days) (Feed E); • Treatment 5 (10 ppm from 10 dph for 120 days): The control diet with the addition of 10 mg peptide/kg of diet (Feed G). Fish were fed the peptide enriched diet for 120 days (4 months) from 10 days of age (D0) to 130 days of age (D120) and the control diet for the last 6 months (159 days) (Feed E); • Treatment 6 (10 ppm from 100 dph for 30 days): The control diet with the addition of 10 mg peptide/kg of diet (Feed G). Fish were fed the peptide enriched diet for 30 days (1 month) from 100 days of age (D90) to 130 days of age (D120) and the control diet for the first three months (90 days from D0 to D90) and the last 6 months (159 days) (Feed E); • Treatment 7 (30 ppm from 10 dph for 60 days): The control diet with the addition of 30 mg peptide/kg of diet (Feed H). Fish were fed the peptide enriched diet for 60 days (2 months) from 10 days of age (D0) to 70 days of age (D60), and the control diet during the last 8 months (219 days) (Feed E); • Treatment 8 (30 ppm from 10 dph for 90 days): The control diet with the addition of 30 mg peptide/kg of diet (Feed H). Fish were fed the peptide enriched diet for 90 days (3 months) from 10 days of age (D0) to 100 days of age (D90) and the control diet for the last 7 months (189 days) (Feed E).
During the experimental period, fish weight and length were measured once a month. Individual fish sex was determined at days 96 and 279 of the experiment. Average fish weight per cage were calculated for each measurement period (FIG. 8). […] Between two weight measurements, average weight gain (FIG. 9A) and daily growth rates (FIG. 9B) were calculated by subtracting the average weight at the beginning and end of the measuring period and dividing by the number of days between.
In order to determine the efficiency of feed conversion into fish substance in experiments (#1, #2, #3), FCR values which reflect the amount of feed needed to grow a kilogram fish, were calculated for each period and for the entire fish growth period. […]

[1] = AN6 for 60 days, 10 mg/Kg feed (Treatment 3)
[2] = AN6 for 90 days, 30 mg/Kg feed (Treatment 8)
[3] = AN6 treated groups (Treatments 2, 3, or 8)
[4] = Treatment 2 (5 ppm from 10 dph for 120 days)
[5] = Treatment 2 (5 ppm from 10 dph for 120 days), of 451 fish
[6] = Treatment 2 (5 ppm from 10 dph for 120 days), female fish, D 96
[7] = Treatment 2 (5 ppm from 10 dph for 120 days), female fish, D 279
[8] = Treatment 2 (5 ppm from 10 dph for 120 days), male fish, D 96
[9] = Treatment 2 (5 ppm from 10 dph for 120 days), male fish, D 279
[10] = Treatment 3 (10 ppm from 10 dph for 60 days)
[11] = Treatment 3 (10 ppm from 10 dph for 60 days), of 480 fish
[12] = Treatment 3 (10 ppm from 10 dph for 60 days), female fish, D 96
[13] = Treatment 3 (10 ppm from 10 dph for 60 days), female fish, D 279
[14] = Treatment 3 (10 ppm from 10 dph for 60 days), male fish, D 96
[15] = Treatment 3 (10 ppm from 10 dph for 60 days), male fish, D 279
[16] = Treatment 4 (10 ppm from 10 dph for 90 days)
[17] = Treatment 4 (10 ppm from 10 dph for 90 days), of 463 fish
[18] = Treatment 4 (10 ppm from 10 dph for 90 days), female fish, D 96
[19] = Treatment 4 (10 ppm from 10 dph for 90 days), female fish, D 279
[20] = Treatment 4 (10 ppm from 10 dph for 90 days), male fish, D 96
[21] = Treatment 4 (10 ppm from 10 dph for 90 days), male fish, D 279
[22] = Treatment 5 (10 ppm from 10 dph for 120 days)
[23] = Treatment 5 (10 ppm from 10 dph for 120 days), of 441 fish

Succ-Asp-Ser- D-Trp -N(Me)Val-βAla-Leu-Met-NH2 (Suc-DS[dW][NMeV][βAla]LM-NH2; SMILES CSCC[C@H](NC(=O)[C@H](CC(C)C)NC(=O)CCNC(=O)[C@H](C(C)C)N(C)C(=O)[C@@H](Cc1c[nH]c2ccccc12)NC(=O)[C@H](CO)NC(=O)[C@H](CC(=O)O)NC(=O)CCC(=O)O)C(N)=O) [AN6]
increase in average fish weight (5 mg AN6/Kg for 120 days (Treatment 2)): +7.11% | increase in average fish weight (10 mg AN6/Kg feed from 10 dph for 120 days (Treatment 5)): +6.41% | increased daily growth rate, on average compared to the control (5 ppm and 10 ppm AN6 for sufficient time (>90 days), throughout the experimental period): 5.8% | FCR [1]: improved FCR significantly | growth [1]: did not affect growth | FCR [2]: improved FCR significantly | growth [2]: did not affect growth | proportion of large fish (>1000 g) [3]: higher proportion | proportion of small fish (<476 g) [3]: lower proportion | % big fish (Big fish 279 dph >1000 g) [4]: 16.6% | % small fish (Small fish 279 dph >476 g) [4]: 4.7% | Δ Treatment - Control (%) big fish (>1000 g) [4]: 6.4% | Δ Treatment - Control (%) small fish (>476 g) [4]: −4.5% | Big fish # (Big fish 279 dph >1000 g) [5]: 75 | Small fish # (Small fish 279 dph) [5]: 21 | Average FCR/cage [4]: −2.14% | Average density (body/cage) [4]: 0.45% | Average weight gain/fish (g) [4]: 6.18% | Average weight/fish (g) [4]: 6.41% | Total weight/cage (g) [4]: 6.71% | Length/fish (cm) Mean [6]: 15.85 cm | Weight/fish (g) Mean [6]: 87.35 g | Δ Mean % (Treatment vs. control) Length/fish [6]: 0.38% | Δ Mean % (Treatment vs. control) Weight/fish [6]: 6.24% | Length/fish (cm) Mean [7]: 30.76 cm | Weight/fish (g) Mean [7]: 651.83 g | Δ Mean % (Treatment vs. control) Length/fish [7]: 2.09% | Δ Mean % (Treatment vs. control) Weight/fish [7]: 8.30% | Length/fish (cm) Mean [8]: 17.22 cm | Weight/fish (g) Mean [8]: 111.8 g | Δ Mean % (Treatment vs. control) Length/fish [8]: 0.00% | Δ Mean % (Treatment vs. control) Weight/fish [8]: 5.97% | Length/fish (cm) Mean [9]: 34.37 cm | Weight/fish (g) Mean [9]: 916.05 g | Δ Mean % (Treatment vs. control) Length/fish [9]: −0.03% | Δ Mean % (Treatment vs. control) Weight/fish [9]: 5.86% | % big fish (Big fish 279 dph >1000 g) [10]: 16.5% | % small fish (Small fish 279 dph >476 g) [10]: 4.8% | Δ Treatment - Control (%) big fish (>1000 g) [10]: 6.2% | Δ Treatment - Control (%) small fish (>476 g) [10]: −4.3% | Big fish # (Big fish 279 dph >1000 g) [11]: 79 | Small fish # (Small fish 279 dph) [11]: 23 | Average FCR/cage [10]: −4.28% | Average density (body/cage) [10]: 6.91% | Average weight gain/fish (g) [10]: 9.19% | Average weight/fish (g) [10]: 3.44% | Total weight/cage (g) [10]: 10.27% | Length/fish (cm) Mean [12]: 16.03 cm | Weight/fish (g) Mean [12]: 87.67 g | Δ Mean % (Treatment vs. control) Length/fish [12]: 1.52% | Δ Mean % (Treatment vs. control) Weight/fish [12]: 6.63% | Length/fish (cm) Mean [13]: 30.5 cm | Weight/fish (g) Mean [13]: 629.02 g | Δ Mean % (Treatment vs. control) Length/fish [13]: 1.23% | Δ Mean % (Treatment vs. control) Weight/fish [13]: 4.51% | Length/fish (cm) Mean [14]: 17.19 cm | Weight/fish (g) Mean [14]: 106.51 g | Δ Mean % (Treatment vs. control) Length/fish [14]: −0.17% | Δ Mean % (Treatment vs. control) Weight/fish [14]: 0.96% | Length/fish (cm) Mean [15]: 34.14 cm | Weight/fish (g) Mean [15]: 877.38 g | Δ Mean % (Treatment vs. control) Length/fish [15]: −0.70% | Δ Mean % (Treatment vs. control) Weight/fish [15]: 1.39% | % big fish (Big fish 279 dph >1000 g) [16]: 14.7% | % small fish (Small fish 279 dph >476 g) [16]: 4.8% | Δ Treatment - Control (%) big fish (>1000 g) [16]: 4.4% | Δ Treatment - Control (%) small fish (>476 g) [16]: −4.4% | Big fish # (Big fish 279 dph >1000 g) [17]: 68 | Small fish # (Small fish 279 dph) [17]: 22 | Average FCR/cage [16]: −2.14% | Average density (body/cage) [16]: 3.34% | Average weight gain/fish (g) [16]: 1.69% | Average weight/fish (g) [16]: 3.89% | Total weight/cage (g) [16]: 7.37% | Length/fish (cm) Mean [18]: 15.96 cm | Weight/fish (g) Mean [18]: 86.4 g | Δ Mean % (Treatment vs. control) Length/fish [18]: 1.08% | Δ Mean % (Treatment vs. control) Weight/fish [18]: 5.08% | Length/fish (cm) Mean [19]: 30.48 cm | Weight/fish (g) Mean [19]: 631.17 g | Δ Mean % (Treatment vs. control) Length/fish [19]: 1.16% | Δ Mean % (Treatment vs. control) Weight/fish [19]: 4.86% | Length/fish (cm) Mean [20]: 17.26 cm | Weight/fish (g) Mean [20]: 111.87 g | Δ Mean % (Treatment vs. control) Length/fish [20]: 0.23% | Δ Mean % (Treatment vs. control) Weight/fish [20]: 6.04% | Length/fish (cm) Mean [21]: 34.15 cm | Weight/fish (g) Mean [21]: 881.92 g | Δ Mean % (Treatment vs. control) Length/fish [21]: −0.67% | Δ Mean % (Treatment vs. control) Weight/fish [21]: 1.92% | % big fish (Big fish 279 dph >1000 g) [22]: 12.0% | % small fish (Small fish 279 dph >476 g) [22]: 8.6% | Δ Treatment - Control (%) big fish (>1000 g) [22]: 1.8% | Δ Treatment - Control (%) small fish (>476 g) [22]: −0.5% | Big fish # (Big fish 279 dph >1000 g) [23]: 53 | Small fish # (Small fish 279 dph) [23]: 38 | Average FCR/cage [22]: −0.53% | Average density (body/cage) [22]: −1.78% | Average weight gain/fish (g) [22]: 7.59%
